Values after ≈ are worked out from the molar mass of the structure shown. Where two headings read alike, the source gives them in different places.
How the values were obtained:
[1] = system: bronchospasms elicited by acetylcholine; assay: Bronchodilator Activity (Konzett Assay) against acetylcholine; type: in vivo, guinea pigs; conditions: Cavia porcellus; three logarithmic cumulative intravenous doses
Procedure: (§1) Bronchodilator activity was determined in guinea pigs against bronchospasms elicited by intravenous injections of 5-hydroxytryptamine, histamine or acetylcholine by the Konzett procedure. [See J. Lulling, P. Lievens, F. El Sayed and J. Prignot, Arzeneimittel-Forschung, 18, 995 (1968)]. In Table IIIC which follows bronchodilator activity for representative compounds of this invention against one or more of the three spasmogenic agents is expressed as an ED50 determined from the results obtained with three logarithmic cumulative intravenous doses.

[2] = system: gastric acid secretion; assay: Inhibition of Gastric Acid Secretion (Pylorous-Ligated Rat), Shay rat procedure; type: in vivo, rats (male, CFE strain); conditions: read-out: % Inhibition of Control Gastric Acid Secretion; for inhibition in vivo at 100 mg/kg: 100 mg./kg. intraduodenal
From the text: The novel compounds of the present invention are also effective inhibitors of gastric acid secretion and of ulcer development in experimental animals, and thus are potentially valuable as agents for the control of gastric acid secretion and of gastric erosion and as anti-ulcer agents. Gastric acid secretion inhibitory action is usually measured by the Shay rat procedure ^(1,2) with some modifications as follows. 6 1. Shay et al., Gastroenterology, 5, 43 (1945). 6 2. Shay et al., Gastroenterology, 26, 906 (1954).
The rats (male, CFE strain) were starved for 48 hours (water was given ad libitum) to permit evacuation of stomach contents. On the morning of the experiment, under ether anesthesia, the abdominal region was shaved and a midline incision (1-1 1/2 inch) was made with a scalpel. With the help of a closed curved hemostat the duodenum was picked up. Upon getting the duodenum into view fingers were used to pull the stomach through the opening, the stomach was then gently manipulated with fingers to rid stomach of air and residual matter which were pushed through the pylorus. Two 5-inch sutures were drawn under the pyloric-duodenal puncture. A ligature, at the juncture, was formed with one of the threads. The second ligature was also formed but not tightened.
The test compound or the vehicle, usually 1 ml./100 g. body weight, were injected into the duodenum as close as possible to the first ligature. After injection the second ligature was tightened below the injection site to minimize leakage. The stomach was placed back through the opening into the abdominal cavity, the area of incision was washed with saline and the incision was closed with autoclips. (Ocasionally instead of an intraduodenal injection, animals were dosed by the oral or subcutaneous route. In the latter case, dosing was done thirty to sixty minutes before the operation).
The abdominal cavity was exposed by cutting with scissors and the esophagus close to the stomach was clamped off with a hemostat, the stomach was removed by cutting above the hemostat (the esophagus was cut) and between the two sutures. Extraneous tissue was removed, the stomach washed with saline and blotted on gauze. A slit was carefully made in the stomach which was held over a funnel and the contents were collected in a centrifuge tube. The stomach was further cut along the outside edge and turned inside out. Two ml. of water were used to wash the stomach contents into the respective centrifuge tube. The combined stomach contents and wash were then centrifuged out for 10 minutes in the International Size 2 Centrifuge (setting at 30). The supernatant was collected, volume measured and recorded, 2 drops of phenolphthalein indicator (1% in 95% ethanol) were added and the solution was titrated with 0.02N NaOH (or with 0.04N NaOH when large volumes of stomach contents were encountered) to pH 8.4 (because of usual coloring of the stomach contents, phenolphthalein was only used to permit visual indication that the end point was near) and the amount of acid present was calculated.
Compounds inducing inhibition of gastric acid secretion of 20% or more were considered active. In a representative operation, and merely by way of illustration, the results obtained with this assay with typical compounds of the present invention are given in Table IIIA.

[3] = system: bronchospasms elicited by 5-hydroxytryptamine; assay: Bronchodilator Activity (Konzett Assay) against 5-hydroxytryptamine; type: in vivo, guinea pigs; conditions: Cavia porcellus; three logarithmic cumulative intravenous doses
Procedure: as §1

[4] = system: dl-PGE1-induced contraction of gerbil colon; assay: Inhibition of dl-PGE1-Induced Contraction of Gerbil Colon (prostaglandin antagonist action); type: cell-based, gerbils (Meriones unguiculatus); conditions: Meriones unguiculatus, 1 min
Procedure: The compounds of this invention are also useful as antagonists of prostaglandin action and accordingly they are potentially useful as anti-inflammatory agents, and as agents for the treatment of periodontal diseases and diarrhea. Testing for prostaglandin antagonist action is carried out in the following manner. Sections of ascending colon, approximately 20 mm. long, from mature male gerbils (Meriones unguiculatus) weighing 70-80 g. were mounted in De Jalon's solution (154 mM NaCl; 5.95 mM NAHCO3; […], 5.64 mM KC and .27 mM CaCl2 in 20 ml. tissue baths) (L and K Glass Co., Lynnhurst, N.J.). The medium was continually gassed with a mixture of 95% 02 -5% CO2 and maintained at 37° C. The tissues were suspended via silk suture threads between a glass hook at the base and a model FT .03C force displacement transducer (Grass Instruments, Quincy, Massachusetts). Contractions were recorded on a Poly-Viso ® polygraph (Sanborn Co., Cambridge, Massachusetts). After mounting, tissues were allowed to stabilize 15-20 minutes during which time adjustments were made to establish and maintain a 0.5 g. resting tension on the muscle. Thereafter, test cycles of 3-5 minutes were begun and consisted of a 1 minute exposure to the potential antagonist, if called for, followed by a 1 minute exposure to the prostaglandin agonist, a 15-30 sec. washout and a recovery period of 2-2.5 minutes. […] During the washout period, the tissue was rinsed with a measured amount equalling 8 volumes of medium. Muscle relaxation was virtually complete by the end of the washout period. During preliminary tests it was noted that a final concentration of 200 ng./ml. of a racemic mixture of synthetic prostaglandin-E1 (dl-PGE1) produced maximal muscle contraction. Following stabilization, muscles were exposed 2 to 3 times to this concentration of dl-PGE1 until a consistent response was recorded. Once maximal responses were established, test cycles with potential antagonists were commenced and were followed alternately with prostaglandin-only test cycle. […] The contraction of the muscle induced by 200 ng./ml. dl-PGE1 following exposure to a given concentration of the potential antagonist was always compared to the response of the tissue to that level of dl PGE1 in the immediately preceding cycle. Using a series of potential antagonist concentrations, an approximate ID50 (concentration at which 50% inhibition was observed) was established. The compounds were also tested against a sub-maximal prostaglandin challenge (20 ng./ml. dl-PGE1) in which case activity is reported in terms of a 50% inhibition of maximum response.

[5] = system: bronchospasms elicited by histamine; assay: Bronchodilator Activity (Konzett Assay) against histamine; type: in vivo, guinea pigs; conditions: Cavia porcellus; three logarithmic cumulative intravenous doses
Procedure: as §1

[6] = system: gastric acid secretion; assay: Inhibition of basal Gastric Acid Secretion (Acute Gastric Fistula Rat); type: in vivo, Female Sprague-Dawley rats; conditions: 2 h, 10 mg./kg. intraduodenal, B: 120 minute collection
Procedure: Inhibition of basal gastric acid secretion was determined in the acute gastric fistula rat as follows. Female Sprague-Dawley rats (Charles River Laboratories) weighing 140-160 grams are fasted in individual cages for 18-24 hours. The rats are then lightly anesthetized with ether and their front teeth extracted to avoid destruction of the plastic cannula. A midline incision is then made and the stomach and duodenum exposed. A flanged polyvinyl tube is inserted into the fundic portion of the stomach and secured with a purse string suture line using 4-0 Mersilene. The rat is then dosed by injection of the compound into the duodenum (1.0 ml. per 100 gram body weight). After dosing, the abdominal wall and skin are closed using metal wound clips. The rat is replaced in a cage containing a longitudinal slit to allow the polyvinyl tube to hang freely. An 8 ml. plastic collecting tube is attached to the flanged cannula and hangs freely below the cage. The first 30 minute sample is discarded designating this time as zero. The collecting tube is attached again and samples removed at the end of 60 and 120 minutes. Those samples are referred to as "A" and "B" in the table. The hourly samples are then transferred to a 15 ml. centrifuge tube and centrifuged for 5-10 minutes. Total and sediment volume are then recorded with the supernatant volume being used as volume of secretion. A 1 ml. or less aliquot is then removed and placed in a 50 ml. beaker containing 10 ml. of distilled water. This sample is then titrated using 0.01N NaOH to pH 7.0 using a Beckman zeromatic pH meter. Volume, titratable acidity (meq/L) and total acid output (μ eq/hour) are recorded. Percent inhibition is determined by comparison with the appropriate control. Groups of three rats were used. All compounds are administered in vehicle (0.5% methocel, 0.4% Tween 80, saline) at a constant volume of 1 ml./100 gram rat. Samples were sonicated with care to prevent overheating.

[7] = system: Trichophyton tonsurans NIH 662; assay: agar-dilution streak-plate antimicrobial assay; type: cell-based; conditions: NIH662, read-out: Minimal inhibitory conc. (3)
Procedure: (§2) The novel compounds of the present invention are also useful as antimicrobial agents. […] In this assay, the compounds to be tested are made up to contain 2.5 mg. of test compound per milliliter of solution. Observing sterile techniques, two-fold serial dilution are made of each test solution. One milliliter of each of the original solutions and of each of the serial dilutions is then added to 9 ml. of warm sterile nutrient agar capable of supporting growth of the bacterial test cultures. A second set of agar dilutions is prepared identical to the first except that the nutrient agar is designed to support the growth of the fungal test cultures. […] The test bacteria and yeast-like fungi are prepared for use by growing in broth overnight. The spores of the filamentous fungi are harvested from mature agar slant cultures and are suspended in sterile physiological saline solution. A loopful of each of the resulting live suspensions is then, still employing sterile techniques, streaked upon the surfaces of each of the agar plates and the resulting streaked plates are then incubated. After an appropriate period of time, each of the streaks on each of the plates is inspected visually and the extent, if any, of bacterial or fungal growth is noted. The minimal inhibitory concentration (expressed in micrograms per milliliter) is defined as the concentration of test compound causing complete inhibition of growth of any particular organism. In a representative operation, and merely by way of illustration, the minimal inhibitory concentration of typical compounds of the present invention against a variety of test organisms as determined in the above-described assay are set forth in Tables II and III below: […]

[8] = system: Mycobacterium smegmatis ATCC 606; assay: agar-dilution streak-plate antimicrobial assay; type: cell-based; conditions: Mycolicibacterium smegmatis, ATCC606, read-out: Minimal inhibitory conc. (6)
Procedure: as §2

[9] = system: diastolic blood pressure; assay: Prostaglandin-like hypotensive activity in anesthetized rats (minimal dose for about 10 mm. decrease in diastolic blood pressure); type: in vivo, Male Wistar strain rats; conditions: Rattus norvegicus; intravenous; decrease of about 10 mm. in diastolic blood pressure
Procedure: This procedure is a modification of the technique described by Pike et al., Prostaglandins, Nobel Symposium 2, Stockholm, June, 1966; p, 165.
Male Wistar strain rats (Royal Hart Farms) averaging approximately 250 grams in weight were fastened to rat boards in a supine position by means of canvas vests and limb ties. The femoral area was infiltrated subcutaneously with lidocaine and the iliac artery and vein exposed and cannulated. Arterial blood pressure (systolic/diastolic) was recorded using a Statham P23 Db pressure transducer-Offner dynograph system. To obtain a stable blood pressure, the animals were anesthetized before use with pentobarbital, 30 mg./kg. of body weight intravenously, and also were given hexamethonium bitartrate, 2 mg./kg. of body weight intravenously. The test compounds were prepared by ultrasonic dispersion in a saline-Tween 80 ® vehicle. A constant intravenous dose volume of 0.5 ml. was administered and test doses ranged from 0.1 to 10.0 mg./kg. of body weight. Increasing or decreasing doses were selected depending on the dose response obtained. In Table I below are set forth the minimal doses required to produce a decrease of about 10 mm. in diastolic blood pressure for typical compounds of the present invention.

[10] = 200 ng./ml. dl-PGE1, read-out: ID50 vs. 200 ng. of PGE1/ml.
[11] = sub-maximal challenge, 20 ng./ml. dl-PGE1, 50% inhibition of maximum response, read-out: ID50 vs. 20 ng. of PGE1/ml.
[12] = read-out: % Inhibition Total Acid Output
[13] = read-out: % Inhibition Total Acidity

CCCCCC/C=C/[C@@H]1CCC(=O)[C@H]1CCCCC(C)(C)CC(=O)O (relative stereo) [3,3-dimethyl-9-oxo-13-trans-prostenoic acid]
ED50 [1]: > 10 mg/kg
inhibition in vivo at 200 mg/kg ([2]; 200 mg./kg. intraduodenal): 72%
ED50 [3]: 12 mg/kg
IC50 [4, 10]: 3 to 5 mg/L (≈ 8.56 to 14.3 µM)
IC50 [4, 11]: 1 mg/L (≈ 2.85 µM)
ED50 [5]: 5.1 mg/kg

CCCCCC/C=C/[C@@H]1CCC(=O)[C@H]1CCCCOCC(=O)O (relative stereo) [9-oxo-3-oxa-13-trans-prostenoic acid]
ED50 [1]: 5.24 mg/kg
inhibition in vivo at 100 mg/kg [2]: 90%
ED50 [3]: 0.895 mg/kg
IC50 [4, 10]: 20 mg/L (≈ 61.6 µM)
ED50 [5]: 0.67 mg/kg

CCCCCC/C=C/[C@@H]1CCC(=NO)[C@H]1CCCCCCC(=O)O (relative stereo) [9-oxo-13-trans-prostenoic acid 9-oxime, 9-Oxo-13-trans-prostenoic acid oxime]
ED50 [1]: 12.5 mg/kg
inhibition in vivo at 100 mg/kg [2]: 39%
ED50 [3]: 30 mg/kg
IC50 [4, 11]: 1 to 2 mg/L (≈ 2.96 to 5.93 µM)
ED50 [5]: 23.1 mg/kg

CCCC/C=C/[C@H]1CCC(=O)[C@@H]1CCCCCCC(=O)O (relative stereo) [9-oxo-19,20-dinor-13-trans-prostenoic acid]
ED50 [1]: 5.28 mg/kg
inhibition in vivo at 50 mg/kg ([2]; 50 mg./kg. intraduodenal): 37%
inhibition in vivo at 100 mg/kg [2]: 77%
ED50 [3]: 2.16 mg/kg
IC50 [4, 11]: 1 to 2 mg/L (≈ 3.4 to 6.79 µM)
ED50 [5]: 0.715 mg/kg

CCCCCC/C=C/[C@@H]1CCC(=O)[C@H]1CCCCC(C)(C)CC(=O)OCC (relative stereo) [ethyl 9-oxo-3,3-dimethyl-13-trans-prostenoate]
inhibition in vivo at 10 mg/kg [6, 12]: 59%
inhibition in vivo at 10 mg/kg [6, 13]: 18%

CCCCCC/C=C/[C@H]1CCC(=NOC)[C@@H]1CCCCCCC(=O)OCC (relative stereo) [ethyl 9-oxo-13-trans-prostenoate 9-methoxime]
inhibition in vivo at 10 mg/kg [6, 12]: 66%
inhibition in vivo at 10 mg/kg [6, 13]: 45%

CCCCCCCCCC/C=C/[C@H]1CCC(=O)[C@@H]1CCCCCCC(=O)OCC (relative stereo) [ethyl 20-butyl-9-oxo-13-trans-prostenoate]
MIC [7]: 250 mg/L (≈ 615 µM)
MIC [8]: 250 mg/L (≈ 615 µM)
minimal effective dose [9]: 10 mg/kg

CCCC=CC1CCC(=O)C1CCCCCC(F)C(=O)O (stereo not drawn) [9-oxo-2-fluoro-18,19,20-trinor-13-trans-prostenoic acid]
ED50 [1]: > 10 mg/kg
ED50 [3]: 8.36 mg/kg
IC50 [4, 10]: 25 to 30 mg/L (≈ 83.8 to 101 µM)
ED50 [5]: 6.35 mg/kg

Source: US4044043A, “Derivatives of 9-oxo-13-trans-prostenoic acid esters” (American Cyanamid Company, priority 1975, dated 1977)
